Experimental data reported in patent US12662491B2 (Redona Therapeutics, Inc., priority 2020, dated 2026).
pIC50: −log10 of the molar value. Read-outs that look alike come from different tables or passages of the source.

Molecular target: T1, Zcchc11 enzyme (Homo sapiens, UniProt Q5TAX3)
T1 construct: made in house; host or cells: HEK293 cells (Zcchc11); E. coli Rosetta II (LIN28A)
T1 sequence (Q5TAX3 212-1420): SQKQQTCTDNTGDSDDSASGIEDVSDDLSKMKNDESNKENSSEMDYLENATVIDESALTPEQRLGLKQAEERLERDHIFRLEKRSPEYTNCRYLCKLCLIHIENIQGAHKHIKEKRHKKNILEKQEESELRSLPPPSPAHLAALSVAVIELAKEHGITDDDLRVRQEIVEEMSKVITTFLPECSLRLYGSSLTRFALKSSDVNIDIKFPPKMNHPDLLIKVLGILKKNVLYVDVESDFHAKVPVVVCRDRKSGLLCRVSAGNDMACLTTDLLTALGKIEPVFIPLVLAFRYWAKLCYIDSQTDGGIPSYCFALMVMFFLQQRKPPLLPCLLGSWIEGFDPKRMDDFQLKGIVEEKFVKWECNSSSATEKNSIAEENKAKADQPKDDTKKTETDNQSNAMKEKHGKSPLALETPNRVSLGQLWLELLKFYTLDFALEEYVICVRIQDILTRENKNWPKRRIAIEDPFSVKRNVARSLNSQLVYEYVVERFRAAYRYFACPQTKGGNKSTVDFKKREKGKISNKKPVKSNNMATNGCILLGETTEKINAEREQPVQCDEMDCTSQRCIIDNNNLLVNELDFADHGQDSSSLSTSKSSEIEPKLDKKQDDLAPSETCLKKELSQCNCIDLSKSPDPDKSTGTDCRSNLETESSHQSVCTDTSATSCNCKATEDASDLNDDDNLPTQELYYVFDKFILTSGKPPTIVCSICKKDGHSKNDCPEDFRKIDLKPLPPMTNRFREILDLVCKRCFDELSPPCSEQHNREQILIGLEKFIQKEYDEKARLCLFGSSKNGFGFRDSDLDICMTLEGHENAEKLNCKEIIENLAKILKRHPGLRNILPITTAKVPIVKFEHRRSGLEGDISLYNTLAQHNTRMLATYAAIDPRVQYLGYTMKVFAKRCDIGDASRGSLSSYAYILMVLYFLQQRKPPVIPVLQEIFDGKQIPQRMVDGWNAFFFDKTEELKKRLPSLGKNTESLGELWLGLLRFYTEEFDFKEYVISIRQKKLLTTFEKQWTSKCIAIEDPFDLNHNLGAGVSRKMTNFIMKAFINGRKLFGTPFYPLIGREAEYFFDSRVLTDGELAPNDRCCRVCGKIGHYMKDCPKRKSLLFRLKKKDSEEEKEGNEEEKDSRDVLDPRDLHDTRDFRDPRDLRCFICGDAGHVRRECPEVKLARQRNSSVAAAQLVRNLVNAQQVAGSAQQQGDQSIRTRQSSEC
Experiment: TUTase assay (Zcchc11 assay, Lin28a-dependent polyuridylation of pre-let-7)
Assay type: biochemical
Details: read-out: Potency Lin28a-dep Z11 IC50
Outline: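 LIN28A (10 nM) in pH 7.3 HEPES/KCl/MgCl2/DTT buffer was mixed with serially diluted compound, then 0.2 nM truncated human Zcchc11 and 2 nM labeled pre-let-7 were added for 30 min at room temperature. UTP (5 uM) and quench probe (4 nM) then started the reaction. Linear early rates gave IC50 values.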

[1] = Lin28a-dependent Zcchc11 (Z11) TUTase activity
[2] = Lin28a-dependent Zcchc11 (Z11) TUTase assay

Row | pIC50 [1] | pIC50 [2] | SMILES
1 | ≥ 6.00 | – | COc1ccnc(OC[C@H]2C[C@H]3C[C@H]3N2c2cc3c(cc2F)c(=O)c(C(=O)O)cn3-c2ccc(N(C)C)nc2)c1F [Compound 197, 1-(6-(dimethyl-amino)pyridin-3-yl)-6-fluoro-7-((1R,3R,5R)-3-(((3-fluoro-4-methoxy-pyridin-2-yl)oxy)methyl)-2-azabicyclo [3.1.0]hexan-2-yl)-4-oxo-1,4-dihydro-quinoline-3-carboxylic acid]
2 | ≥ 6.00 | – | N#Cc1cc2c(=O)c(C(=O)O)cn(-c3ccc(N)nc3)c2cc1N1CCC[C@@H]1COc1ncccc1F [Compound 217]
3 | ≥ 6.00 | – | O=C(O)c1cn(-c2ccc(O)cc2)c2cc(N3CCC[C@@H]3CNc3ncccc3Cl)c(F)cc2c1=O [Compound 112, (R)-7-(2-(((3-chloropyridin-2-yl)amino)methyl)pyrrolidin-1-yl)-6-fluoro-1-(4-hydroxy-phenyl)-4-oxo-1,4-dihydro-quinoline-3-carboxylic acid]
4 | 4.30 to 5.00 | – | O=C(O)c1cn(C2CC2)c2c(Cl)c(N3CCC[C@@H]3COc3ccccn3)c(F)cc2c1=O [Compound 91, (R)-8-chloro-1-cyclopropyl-6-fluoro-4-oxo-7-(2-((pyridin-2-yloxy)methyl)pyrrolidin-1-yl)-1,4-dihydro-quinoline-3-carboxylic acid]
5 | – | ≥ 6.00 | O=C(O)c1cn(-c2cc3n(n2)CCNC3)c2cc(N3CCC[C@@H]3COc3ncccc3Cl)c(Cl)cc2c1=O [Example 515, (R)-6-chloro-7-(2-(((3-chloropyridin-2-yl)oxy)methyl)pyrrolidin-1-yl)-4-oxo-1-(4,5,6,7-tetrahydropyrazolo [1,5-a]pyrazin-2-yl)-1,4-dihydroquinoline-3-carboxylic acid]
6 | – | 5.00 to 6.00 | COc1ccc(Cl)c(-n2cc(C(=O)O)c(=O)c3cc(F)c(N4CCC[C@@H]4COc4ccccn4)cc32)c1 [Example 398, (R)-1-(2-chloro-5-methoxyphenyl)-6-fluoro-4-oxo-7-(2-((pyridin-2-yloxy)methyl)pyrrolidin-1-yl)-1,4-dihydroquinoline-3-carboxylic acid]
7 | ≥ 6.00 | – | O=C(O)c1cn(-c2ccc(O)cc2)c2cc(N3CCC[C@@H]3COc3nccc4cc[nH]c34)c(F)cc2c1=O [Compound 117, (R)-7-(2-(((1H-pyrrolo[2,3-c]pyridin-7-yl)oxy)methyl)pyrrolidin-1-yl)-6-fluoro-1-(4-hydroxy-phenyl)-4-oxo-1,4-dihydro-quinoline-3-carboxylic acid]
8 | ≥ 6.00 | – | Cc1cccnc1OC[C@H]1CCCN1c1cc2c(cc1F)c(=O)c(C(=O)O)cn2C1CC1 [Compound 102, (R)-1-cyclopropyl-6-fluoro-7-(2-(((3-methyl-pyridin-2-yl)oxy)methyl)pyrrolidin-1-yl)-4-oxo-1,4-dihydro-quinoline-3-carboxylic acid]
9 | ≥ 6.00 | – | Cc1ccc(Cl)c(OC[C@H]2C[C@H]3C[C@H]3N2c2cc3c(cc2F)c(=O)c(C(=O)O)cn3-c2ccc(N(C)C)nc2)n1 [Compound 309]
10 | – | ≥ 6.00 | COc1ccnc(OC[C@H]2C[C@H]3C[C@H]3N2c2nc3c(cc2Cl)c(=O)c(C(=O)O)cn3-c2ccc(N3CC(N(C)C)C3)nc2)c1Cl [Example 679, 6-chloro-7-((1R,3R,5R)-3-(((3-chloro-4-methoxypyridin-2-yl)oxy)methyl)-2-azabicyclo[3.1.0]hexan-2-yl)-1-(6-(3-(dimethylamino)azetidin-1-yl)pyridin-3-yl)-4-oxo-1,4-dihydro-1,8-naphthyridine-3-carboxylic acid]
11 | – | ≥ 6.00 | CN(C)C1CN(c2ccc(-n3cc(C(=O)O)c(=O)c4cc(C#N)c(N5C[C@@H](F)C[C@@H]5COc5ncccc5Cl)cc43)cn2)C1 [Example 572, 7-((2R,4S)-2-(((3-chloropyridin-2-yl)oxy)methyl)-4-fluoropyrrolidin-1-yl)-6-cyano-1-(6-(3-(dimethylamino)azetidin-1-yl)pyridin-3-yl)-4-oxo-1,4-dihydroquinoline-3-carboxylic acid]
12 | 5.00 to 6.00 | – | Cc1ccccc1OC[C@H]1CCCN1c1cc2c(cc1F)c(=O)c(C(=O)O)cn2-c1ccc(O)cc1 [Compound 105, (R)-6-fluoro-1-(4-hydroxy-phenyl)-4-oxo-7-(2-((o-tolyloxy)methyl)pyrrolidin-1-yl)-1,4-dihydro-quinoline-3-carboxylic acid]
13 | ≥ 6.00 | – | COc1ccc(Cl)c(OC[C@H]2CC(c3ccc(O)nc3)CN2c2cc3c(cc2Cl)c(=O)c(C(=O)O)cn3-c2ccc(N3CC(N(C)C)C3)nc2)n1 (mixture of isomers) [Compound 225, Rac-6-chloro-7-((2R)-2-(((3-chloro-6-methoxy-pyridin-2-yl)oxy)methyl)-4-(6-hydroxy-pyridin-3-yl)pyrrolidin-1-yl)-1-(6-(3-(dimethyl-amino)azetidin-1-yl)pyridin-3-yl)-4-oxo-1,4-dihydro-quinoline-3-carboxylic acid]
14 | – | ≥ 6.00 | Cn1cc(Cn2cc(C(=O)O)c(=O)c3cc(Cl)c(N4CCC[C@@H]4COc4ncccc4Cl)cc32)cn1 [Example 573, (R)-6-chloro-7-(2-(((3-chloropyridin-2-yl)oxy)methyl)pyrrolidin-1-yl)-1-((1-methyl-1H-pyrazol-4-yl)methyl)-4-oxo-1,4-dihydroquinoline-3-carboxylic acid]
15 | – | ≥ 6.00 | CN(C)c1cnc(-n2cc(C(=O)O)c(=O)c3cc(Cl)c(N4CCC[C@@H]4COc4ncccc4Cl)cc32)cn1 [Example 424, (R)-6-chloro-7-(2-(((3-chloropyridin-2-yl)oxy)methyl)pyrrolidin-1-yl)-1-(5-(dimethylamino)pyrazin-2-yl)-4-oxo-1,4-dihydroquinoline-3-carboxylic acid]
16 | – | ≥ 6.00 | O=C(O)c1cn(Cc2ccccn2)c2cc(N3CCC[C@@H]3COc3ncccc3Cl)c(Cl)cc2c1=O [Example 576, (R)-6-chloro-7-(2-(((3-chloropyridin-2-yl)oxy)methyl)pyrrolidin-1-yl)-4-oxo-1-(pyridin-2-ylmethyl)-1,4-dihydroquinoline-3-carboxylic acid]
17 | ≥ 6.00 | – | COc1ccc(F)c(OC[C@H]2C[C@H]3C[C@H]3N2c2cc3c(cc2Cl)c(=O)c(C(=O)O)cn3-c2ccnc(N)c2)n1 [Compound 342, 1-(2-Aminopyridin-4-yl)-6-chloro-7-[(1R,3R,5R)-3-{[(3-fluoro-6-methoxy-pyridin-2-yl)oxy]methyl}-2-azabicyclo [3.1.0]hexan-2-yl]-4-oxoquinoline-3-carboxylic acid]
18 | < 4.30 | – | CN(C)C1CN(c2ccc(-n3cc(C(=O)O)c(=O)c4ccc(N5C(=O)CCCC5COc5ccccn5)cc43)cn2)C1 (stereo not drawn) [Compound 323, 1-[6-[3-(Dimethyl-amino)azetidin-1-yl]pyridin-3-yl]-4-oxo-7-[2-oxo-6-[(pyridin-2-yloxy)methyl]piperidin-1-yl]quinoline-3-carboxylic acid]
19 | – | ≥ 6.00 | Cn1cnc(-n2cc(C(=O)O)c(=O)c3cc(Cl)c(N4CCC[C@@H]4COc4ncccc4Cl)cc32)c1 [Example 566, (R)-6-chloro-7-(2-(((3-chloropyridin-2-yl)oxy)methyl)pyrrolidin-1-yl)-1-(1-methyl-1H-imidazol-4-yl)-4-oxo-1,4-dihydroquinoline-3-carboxylic acid]
20 | – | ≥ 6.00 | O=C(O)c1cn(-c2ccc(C3COC3)nc2)c2cc(N3CCC[C@@H]3COc3ncccc3Cl)c(Cl)cc2c1=O [Example 605, (R)-6-chloro-7-(2-(((3-chloropyridin-2-yl)oxy)methyl)pyrrolidin-1-yl)-1-(6-(oxetan-3-yl)pyridin-3-yl)-4-oxo-1,4-dihydroquinoline-3-carboxylic acid]
21 | ≥ 6.00 | – | CO/N=C1/CCN(c2cc3c(cc2Cl)c(=O)c(C(=O)O)cn3-c2ccc(N3CC(N(C)C)C3)nc2)C1COc1nc(OC)ccc1Cl (stereo not drawn) [Compound 232, (Z)-6-chloro-7-(2-(((3-chloro-6-methoxy-pyridin-2-yl)oxy)methyl)-3-(methoxyimino)pyrrolidin-1-yl)-1-(6-(3-(dimethyl-amino)azetidin-1-yl)pyridin-3-yl)-4-oxo-1,4-dihydro-quinoline-3-carboxylic acid]
